In ChEMBL document CHEMBL5465560, “Selectivity Literature for EUbOPEN Chemogenomic Library” (2024):

What was measured:
[1] = molecular target: Serine/threonine-protein kinase PLK1 (Homo sapiens, UniProt P53350); test: Selectivity interaction (KinomeScan (DiscoverX)) EUB0000229b PLK1; details: at 10 µM
[2] = molecular target: Cyclin-dependent kinase 17 (Homo sapiens) (UniProt Q00537); test: Selectivity interaction (Kinase panel (KiNativ target engagement assay in Jurkat cells)) EUB0001635a CDK17; type: cell-based; details: Selectivity number of off-targets 0.0, Selectivity number of targets 233.0, Source Knowledge https://www.sciencedirect.com/science/article/pii/S2451945619300674?via%3Dihub, at 1 µM
[3] = molecular target: Tyrosine-protein kinase ABL2 (Homo sapiens, UniProt P42684); test: Selectivity interaction (ActivX KiNativ screen (kinase selectivity in THP-1 cell lysates)) EUB0000639a ABL2; type: subcellular; details: lysate, at 5 µM
[4] = molecular target: Serine/threonine-protein kinase N1 (Homo sapiens, UniProt Q16512); test: Selectivity interaction (KinomeScan (DiscoverX)) EUB0000092b PKN1; details: at 10 µM
[5] = molecular target: Tyrosine-protein kinase JAK1 (Homo sapiens, UniProt P23458); test: Selectivity interaction (Ambit KINOMEscan and KiNATiv profiling in Jurkat cells) EUB0000090b JAK1; type: cell-based; details: at 1 µM
[6] = Selectivity interaction (KinomeScan (DiscoverX)) EUB0000045b PKNB
[7] = molecular target: Glycogen synthase kinase-3 beta (Homo sapiens, UniProt P49841)
[8] = molecular target: Ribosomal protein S6 kinase beta-1 (Homo sapiens, UniProt P23443); test: Selectivity interaction (KinomeScan (DiscoverX)) EUB0000695a RPS6KB1; details: at 100 nM
[9] = molecular target: T1, NUAK family SNF1-like kinase 2 (Homo sapiens) (UniProt Q9H093); test: Selectivity interaction (KinomeScan (DiscoverX)) EUB0000695a NUAK2; details: at 100 nM
T1 sequence (whole entry): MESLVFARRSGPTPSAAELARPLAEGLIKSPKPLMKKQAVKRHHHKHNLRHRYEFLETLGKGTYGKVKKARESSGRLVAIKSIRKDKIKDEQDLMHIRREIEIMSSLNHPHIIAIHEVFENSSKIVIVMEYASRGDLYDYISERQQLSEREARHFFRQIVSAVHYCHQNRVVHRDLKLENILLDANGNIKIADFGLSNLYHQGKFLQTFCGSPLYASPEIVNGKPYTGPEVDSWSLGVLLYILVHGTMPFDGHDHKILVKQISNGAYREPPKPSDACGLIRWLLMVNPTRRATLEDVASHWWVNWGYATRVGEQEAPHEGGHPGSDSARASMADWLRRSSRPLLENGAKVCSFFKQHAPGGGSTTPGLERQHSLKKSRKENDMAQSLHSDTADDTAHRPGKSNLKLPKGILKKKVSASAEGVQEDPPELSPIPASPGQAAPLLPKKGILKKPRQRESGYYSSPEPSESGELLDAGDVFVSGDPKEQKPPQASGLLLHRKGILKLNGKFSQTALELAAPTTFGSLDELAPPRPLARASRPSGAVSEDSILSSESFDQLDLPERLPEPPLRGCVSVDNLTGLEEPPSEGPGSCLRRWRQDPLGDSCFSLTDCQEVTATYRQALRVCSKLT

[10] = molecular target: T2, Serine/threonine-protein kinase ICK (Homo sapiens) (UniProt Q9UPZ9); test: Selectivity interaction (LanthaScreen Eu Kinase Binding Assay) EUB0001632a ICK; details: at 10 µM
T2 sequence (whole entry): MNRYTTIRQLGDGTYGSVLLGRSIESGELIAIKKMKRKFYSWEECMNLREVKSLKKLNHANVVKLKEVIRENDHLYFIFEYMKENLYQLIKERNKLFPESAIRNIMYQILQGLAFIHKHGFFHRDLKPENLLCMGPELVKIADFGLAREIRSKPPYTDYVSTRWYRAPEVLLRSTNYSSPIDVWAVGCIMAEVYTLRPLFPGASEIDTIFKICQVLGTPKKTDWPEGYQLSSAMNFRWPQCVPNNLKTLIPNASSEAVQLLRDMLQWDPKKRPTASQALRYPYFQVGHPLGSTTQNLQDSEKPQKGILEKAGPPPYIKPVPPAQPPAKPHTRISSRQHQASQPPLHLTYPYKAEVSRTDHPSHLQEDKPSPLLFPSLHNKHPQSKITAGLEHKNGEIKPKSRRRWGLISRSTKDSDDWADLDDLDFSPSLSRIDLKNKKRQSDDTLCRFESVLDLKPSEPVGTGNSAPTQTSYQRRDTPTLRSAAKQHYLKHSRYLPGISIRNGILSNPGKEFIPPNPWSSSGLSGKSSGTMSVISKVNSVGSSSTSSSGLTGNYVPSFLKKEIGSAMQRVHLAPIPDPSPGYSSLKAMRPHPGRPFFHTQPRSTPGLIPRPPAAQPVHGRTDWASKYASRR

[11] = molecular target: Serine/threonine-protein kinase MARK1 (Homo sapiens) (UniProt Q9P0L2); test: Selectivity interaction (Kinase panel (Z-LYTE Assay)) EUB0001632a MARK1; details: at 10 µM
[12] = molecular target: T3, Tyrosine-protein kinase TXK (Homo sapiens) (UniProt P42681); test: Selectivity interaction (Kinase panel (Z-LYTE Assay)) EUB0001632a TXK; details: at 10 µM
T3 sequence (whole entry): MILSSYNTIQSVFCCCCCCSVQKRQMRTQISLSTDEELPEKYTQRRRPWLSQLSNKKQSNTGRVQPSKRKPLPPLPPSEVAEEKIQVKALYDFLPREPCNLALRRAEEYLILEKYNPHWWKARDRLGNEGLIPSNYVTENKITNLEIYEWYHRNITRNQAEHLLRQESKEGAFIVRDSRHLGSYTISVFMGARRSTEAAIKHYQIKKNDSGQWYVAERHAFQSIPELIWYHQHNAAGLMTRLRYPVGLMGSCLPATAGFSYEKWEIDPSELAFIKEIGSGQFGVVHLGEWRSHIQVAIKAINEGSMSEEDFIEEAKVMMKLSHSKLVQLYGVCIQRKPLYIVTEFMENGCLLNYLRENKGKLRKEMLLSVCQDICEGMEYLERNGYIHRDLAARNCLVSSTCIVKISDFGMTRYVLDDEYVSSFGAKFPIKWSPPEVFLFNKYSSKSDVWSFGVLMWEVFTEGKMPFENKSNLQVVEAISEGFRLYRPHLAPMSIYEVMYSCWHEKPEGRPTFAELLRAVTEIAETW

Sequence of Glycogen synthase kinase-3 beta (P49841 whole entry): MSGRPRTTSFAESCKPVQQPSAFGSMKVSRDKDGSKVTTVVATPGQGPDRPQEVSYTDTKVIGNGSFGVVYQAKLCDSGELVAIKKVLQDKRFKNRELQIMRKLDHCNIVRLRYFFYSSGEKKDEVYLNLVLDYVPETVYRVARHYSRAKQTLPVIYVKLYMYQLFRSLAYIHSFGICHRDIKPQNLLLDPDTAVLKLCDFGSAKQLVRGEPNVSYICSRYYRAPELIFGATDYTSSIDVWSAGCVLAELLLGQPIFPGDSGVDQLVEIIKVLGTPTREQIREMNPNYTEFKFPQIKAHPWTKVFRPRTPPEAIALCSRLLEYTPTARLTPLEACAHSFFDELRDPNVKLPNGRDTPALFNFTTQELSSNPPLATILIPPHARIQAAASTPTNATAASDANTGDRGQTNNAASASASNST
Sequence of Tyrosine-protein kinase JAK1 (P23458 whole entry): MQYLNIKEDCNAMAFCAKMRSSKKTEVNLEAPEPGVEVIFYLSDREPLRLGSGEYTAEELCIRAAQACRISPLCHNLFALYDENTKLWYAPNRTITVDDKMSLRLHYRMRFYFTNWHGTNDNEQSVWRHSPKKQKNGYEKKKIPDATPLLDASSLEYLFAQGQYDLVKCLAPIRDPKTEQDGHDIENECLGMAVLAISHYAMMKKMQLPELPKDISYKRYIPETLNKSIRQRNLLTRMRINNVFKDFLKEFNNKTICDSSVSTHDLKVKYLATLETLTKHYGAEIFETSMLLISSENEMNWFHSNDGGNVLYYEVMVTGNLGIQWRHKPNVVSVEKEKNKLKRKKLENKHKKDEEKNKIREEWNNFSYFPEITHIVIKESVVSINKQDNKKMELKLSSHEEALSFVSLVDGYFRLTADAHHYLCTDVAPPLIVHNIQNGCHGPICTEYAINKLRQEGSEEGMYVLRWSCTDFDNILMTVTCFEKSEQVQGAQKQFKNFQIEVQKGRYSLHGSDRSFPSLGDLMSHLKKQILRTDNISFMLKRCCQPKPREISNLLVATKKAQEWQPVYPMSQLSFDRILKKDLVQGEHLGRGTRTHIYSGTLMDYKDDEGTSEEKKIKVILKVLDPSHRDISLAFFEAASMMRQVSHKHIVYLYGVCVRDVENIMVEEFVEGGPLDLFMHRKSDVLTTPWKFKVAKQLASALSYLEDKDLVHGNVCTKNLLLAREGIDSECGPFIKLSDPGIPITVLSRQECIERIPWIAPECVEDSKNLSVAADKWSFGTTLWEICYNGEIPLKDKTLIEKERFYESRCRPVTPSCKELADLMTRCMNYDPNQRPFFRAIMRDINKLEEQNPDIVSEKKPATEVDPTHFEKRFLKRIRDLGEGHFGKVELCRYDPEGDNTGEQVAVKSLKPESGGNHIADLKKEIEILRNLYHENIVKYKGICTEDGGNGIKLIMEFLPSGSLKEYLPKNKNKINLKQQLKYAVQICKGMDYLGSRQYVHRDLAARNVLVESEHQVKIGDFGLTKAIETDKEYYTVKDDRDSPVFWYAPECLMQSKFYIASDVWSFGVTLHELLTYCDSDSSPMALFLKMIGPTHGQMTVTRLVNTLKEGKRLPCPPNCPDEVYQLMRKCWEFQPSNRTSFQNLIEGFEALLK
Sequence of Ribosomal protein S6 kinase beta-1 (P23443 whole entry, looked up): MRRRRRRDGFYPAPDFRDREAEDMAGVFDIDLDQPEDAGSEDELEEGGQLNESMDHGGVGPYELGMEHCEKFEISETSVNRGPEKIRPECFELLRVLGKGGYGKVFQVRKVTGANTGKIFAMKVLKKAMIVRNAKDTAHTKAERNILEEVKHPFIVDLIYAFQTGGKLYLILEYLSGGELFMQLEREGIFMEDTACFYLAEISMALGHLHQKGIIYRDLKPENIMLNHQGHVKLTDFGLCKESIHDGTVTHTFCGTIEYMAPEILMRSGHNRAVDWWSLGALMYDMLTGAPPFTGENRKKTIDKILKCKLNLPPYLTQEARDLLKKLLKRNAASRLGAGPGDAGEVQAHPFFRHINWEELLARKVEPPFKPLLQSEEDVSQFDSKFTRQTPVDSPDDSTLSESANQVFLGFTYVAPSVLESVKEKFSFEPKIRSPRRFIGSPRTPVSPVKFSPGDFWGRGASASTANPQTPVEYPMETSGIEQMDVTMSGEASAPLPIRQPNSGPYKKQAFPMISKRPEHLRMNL
Sequence of Serine/threonine-protein kinase PLK1 (P53350 whole entry): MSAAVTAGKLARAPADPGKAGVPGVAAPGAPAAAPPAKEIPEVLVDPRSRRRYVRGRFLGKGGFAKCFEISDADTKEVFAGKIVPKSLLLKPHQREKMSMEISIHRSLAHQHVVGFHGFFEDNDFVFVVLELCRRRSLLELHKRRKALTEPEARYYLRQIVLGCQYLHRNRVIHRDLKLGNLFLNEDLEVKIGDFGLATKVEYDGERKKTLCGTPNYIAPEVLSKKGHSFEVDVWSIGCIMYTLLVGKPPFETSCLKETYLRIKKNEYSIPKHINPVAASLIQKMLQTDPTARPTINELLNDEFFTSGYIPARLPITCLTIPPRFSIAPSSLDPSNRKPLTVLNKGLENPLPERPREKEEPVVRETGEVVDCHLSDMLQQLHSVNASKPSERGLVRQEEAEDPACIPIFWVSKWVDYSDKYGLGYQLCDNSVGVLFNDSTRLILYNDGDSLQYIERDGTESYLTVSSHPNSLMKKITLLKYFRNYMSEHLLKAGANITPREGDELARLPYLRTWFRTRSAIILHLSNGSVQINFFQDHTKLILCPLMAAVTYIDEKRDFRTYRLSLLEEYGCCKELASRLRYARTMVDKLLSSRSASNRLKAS
Sequence of Serine/threonine-protein kinase N1 (Q16512 2-942 limits assumed): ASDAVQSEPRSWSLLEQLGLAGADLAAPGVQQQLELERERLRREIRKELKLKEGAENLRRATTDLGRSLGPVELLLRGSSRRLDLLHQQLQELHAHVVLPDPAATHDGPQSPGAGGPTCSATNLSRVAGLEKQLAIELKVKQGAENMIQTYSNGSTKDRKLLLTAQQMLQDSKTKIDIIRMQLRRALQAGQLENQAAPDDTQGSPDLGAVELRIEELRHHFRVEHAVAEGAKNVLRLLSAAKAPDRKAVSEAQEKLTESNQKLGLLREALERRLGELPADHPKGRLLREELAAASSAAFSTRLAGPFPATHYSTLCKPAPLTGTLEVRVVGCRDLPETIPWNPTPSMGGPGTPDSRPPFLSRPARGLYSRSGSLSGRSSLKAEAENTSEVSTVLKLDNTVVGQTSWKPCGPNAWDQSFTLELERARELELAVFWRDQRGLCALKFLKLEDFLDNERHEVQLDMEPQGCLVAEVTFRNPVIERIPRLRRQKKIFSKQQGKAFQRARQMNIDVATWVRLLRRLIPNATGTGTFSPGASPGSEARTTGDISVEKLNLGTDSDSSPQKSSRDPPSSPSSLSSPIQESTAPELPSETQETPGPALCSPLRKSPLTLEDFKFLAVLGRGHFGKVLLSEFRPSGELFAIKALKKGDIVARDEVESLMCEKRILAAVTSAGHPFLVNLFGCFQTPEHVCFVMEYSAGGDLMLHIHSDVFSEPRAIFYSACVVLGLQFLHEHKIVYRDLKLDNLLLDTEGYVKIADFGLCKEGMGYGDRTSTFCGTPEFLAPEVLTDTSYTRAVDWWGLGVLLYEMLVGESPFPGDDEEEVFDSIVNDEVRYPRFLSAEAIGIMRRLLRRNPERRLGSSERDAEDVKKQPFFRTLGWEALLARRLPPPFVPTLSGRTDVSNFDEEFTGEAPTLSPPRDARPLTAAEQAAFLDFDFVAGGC
Sequence of Cyclin-dependent kinase 17 (Homo sapiens) (Q00537 whole entry, looked up): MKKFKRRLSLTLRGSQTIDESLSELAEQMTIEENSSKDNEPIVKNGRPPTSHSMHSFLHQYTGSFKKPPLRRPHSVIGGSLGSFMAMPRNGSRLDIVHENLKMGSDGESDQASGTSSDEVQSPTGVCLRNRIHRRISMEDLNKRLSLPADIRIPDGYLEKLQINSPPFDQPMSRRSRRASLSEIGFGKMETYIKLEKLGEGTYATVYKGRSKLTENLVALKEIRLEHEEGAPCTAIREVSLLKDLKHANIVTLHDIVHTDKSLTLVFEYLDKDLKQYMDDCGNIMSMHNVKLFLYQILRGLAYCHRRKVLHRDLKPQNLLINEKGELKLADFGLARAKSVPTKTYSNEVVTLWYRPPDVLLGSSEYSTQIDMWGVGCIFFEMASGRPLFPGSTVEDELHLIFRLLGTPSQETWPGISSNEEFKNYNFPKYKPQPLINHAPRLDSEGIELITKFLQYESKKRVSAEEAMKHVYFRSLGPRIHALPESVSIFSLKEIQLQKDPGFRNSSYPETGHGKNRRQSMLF
Sequence of Serine/threonine-protein kinase MARK1 (Homo sapiens) (Q9P0L2 whole entry, looked up): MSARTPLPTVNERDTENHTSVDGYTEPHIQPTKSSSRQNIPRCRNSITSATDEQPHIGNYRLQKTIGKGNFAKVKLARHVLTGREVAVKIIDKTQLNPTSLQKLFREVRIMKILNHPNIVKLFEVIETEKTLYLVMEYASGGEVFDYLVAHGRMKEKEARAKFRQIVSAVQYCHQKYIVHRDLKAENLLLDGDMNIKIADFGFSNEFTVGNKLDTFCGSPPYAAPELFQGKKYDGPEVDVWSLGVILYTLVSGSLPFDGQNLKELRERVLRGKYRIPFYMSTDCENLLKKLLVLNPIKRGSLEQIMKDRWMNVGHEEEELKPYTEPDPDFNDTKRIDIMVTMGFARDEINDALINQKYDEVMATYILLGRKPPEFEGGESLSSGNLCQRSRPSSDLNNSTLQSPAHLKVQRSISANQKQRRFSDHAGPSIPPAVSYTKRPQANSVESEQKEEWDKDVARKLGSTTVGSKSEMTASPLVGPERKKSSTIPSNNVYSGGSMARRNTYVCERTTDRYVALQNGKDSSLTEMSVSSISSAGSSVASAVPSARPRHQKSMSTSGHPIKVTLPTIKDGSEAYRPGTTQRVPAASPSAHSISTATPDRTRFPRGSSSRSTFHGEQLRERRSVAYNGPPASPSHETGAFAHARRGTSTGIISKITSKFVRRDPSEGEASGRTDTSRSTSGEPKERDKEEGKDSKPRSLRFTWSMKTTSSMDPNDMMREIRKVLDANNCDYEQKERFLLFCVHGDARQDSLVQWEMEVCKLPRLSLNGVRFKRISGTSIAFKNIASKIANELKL

In the case of `COc1cc(N(C)c2ccnc3ccc(C(F)(F)F)cc23)cc(OC)c1OC`, the % binding [1] is reported as 100%.

With `C=CC(=O)Nc1ccc(C(=O)Nc2[nH]nc3c2CN(C(=O)N[C@H](CN(C)C)c2ccccc2)C3(C)C)cc1` the % of engagement [2] was 12.8%.

For `CC[C@@H]1[C@H](F)C(=O)N[C@@H]1COc1nccc2cc(C(N)=O)c(OC)cc12` [ZIMLOVISERTIB], the % of inhibition [3] was 30.7%.

Work on `CCC(=O)N1CCN(c2ccc(-n3c(=O)ccc4cnc5ccc(-c6cnc7ccccc7c6)cc5c43)cc2C(F)(F)F)CC1` yielded a % of control [4] of 92%.

Compound `CN(C)C/C=C/C(=O)Nc1ccc(C(=O)N2CCCC(Nc3ncc(Cl)c(-c4c[nH]c5ccccc45)n3)C2)cc1` (stereo not drawn) has a % of control [5] of 70%.

`C=CC(=O)Nc1cc(-n2c(=O)ccc3cnc4ccc(-c5ccc(NS(C)(=O)=O)cc5)cc4c32)ccc1C` showed a % of control ([6]; at 1 µM) of 41% and a % of control ([6]; at 10 µM) of 90%.

For `CCc1cccc(CC)c1NC(=O)c1nn(C)c2c1CCc1cnc(Nc3ccc(C(=O)NC4CCN(C)CC4)cc3OC(F)(F)F)nc1-2`, the IC50 [7] was greater than 10 µM.

For `Cc1cc(F)c(C(=O)Nc2cccc(-c3nncn3C(C)C)n2)cc1-n1cnc(C2CC2)c1`, the % of control [8] was 100% and the % of control [9] was 94%.

With `Cn1cc(-n2cnc3c(NCc4nc5cc(Cl)c(Cl)cc5[nH]4)nc(N4CCOCC4)nc32)cn1` the % of inhibition [10] was -3.44%, the % of control [11] was 3.94% and the % of control [12] was 12.2%.
